Reference: patent publication US20230265098A1, “ALKYNE QUINAZOLINE DERIVATIVES AS INHIBITORS OF ERBB2” (EnLiven Therapeutics, Inc., priority 2020, published 2023)

How the values were obtained:
[1] = target: T1, BaF3 EGFR-D770-N771insSVD (Homo sapiens, UniProt P00533, DUP768-770, cells depend on it); assay: Cell viability assay (CellTiter Glo); format: cell-based, mouse; conditions: 72 hours; 3000 cells per well, 96-well plates; read-out: Cell viability IC50, nM, BaF3 EGFR-D770-N771insSVD
T1 construct: Ba/F3 cell lines were engineered to express human ERBB2 or EGFR kinases, rendering the cells IL-3 independent
How it was run: (§1)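 Murine Ba/F3 cells made IL-3-independent by retroviral human EGFR or ERBB2 were seeded at 3000 or 300 cells per well and exposed to serially diluted compound (DMSO ≤0.1%) for 72 hours at 37° C, 5% CO2. CellTiter Glo luminescence was normalised to DMSO and media-only controls and fitted to a sigmoidal dose-response.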

[2] = target: T2, BaF3-EGFR-V769 D770insASV (Homo sapiens, UniProt P00533, DUP767-769, cells depend on it); assay: Cell viability assay (CellTiter Glo); format: cell-based, mouse; conditions: 72 hours; 3000 cells per well, 96-well plates; read-out: Cell viability IC50, nM, BaF3-EGFR-V769 D770insASV
T2 construct: Ba/F3 cell lines were engineered to express human ERBB2 or EGFR kinases, rendering the cells IL-3 independent
How it was run: as §1

T2 sequence (P00533 with tags, fused parts or gaps DUP767-769): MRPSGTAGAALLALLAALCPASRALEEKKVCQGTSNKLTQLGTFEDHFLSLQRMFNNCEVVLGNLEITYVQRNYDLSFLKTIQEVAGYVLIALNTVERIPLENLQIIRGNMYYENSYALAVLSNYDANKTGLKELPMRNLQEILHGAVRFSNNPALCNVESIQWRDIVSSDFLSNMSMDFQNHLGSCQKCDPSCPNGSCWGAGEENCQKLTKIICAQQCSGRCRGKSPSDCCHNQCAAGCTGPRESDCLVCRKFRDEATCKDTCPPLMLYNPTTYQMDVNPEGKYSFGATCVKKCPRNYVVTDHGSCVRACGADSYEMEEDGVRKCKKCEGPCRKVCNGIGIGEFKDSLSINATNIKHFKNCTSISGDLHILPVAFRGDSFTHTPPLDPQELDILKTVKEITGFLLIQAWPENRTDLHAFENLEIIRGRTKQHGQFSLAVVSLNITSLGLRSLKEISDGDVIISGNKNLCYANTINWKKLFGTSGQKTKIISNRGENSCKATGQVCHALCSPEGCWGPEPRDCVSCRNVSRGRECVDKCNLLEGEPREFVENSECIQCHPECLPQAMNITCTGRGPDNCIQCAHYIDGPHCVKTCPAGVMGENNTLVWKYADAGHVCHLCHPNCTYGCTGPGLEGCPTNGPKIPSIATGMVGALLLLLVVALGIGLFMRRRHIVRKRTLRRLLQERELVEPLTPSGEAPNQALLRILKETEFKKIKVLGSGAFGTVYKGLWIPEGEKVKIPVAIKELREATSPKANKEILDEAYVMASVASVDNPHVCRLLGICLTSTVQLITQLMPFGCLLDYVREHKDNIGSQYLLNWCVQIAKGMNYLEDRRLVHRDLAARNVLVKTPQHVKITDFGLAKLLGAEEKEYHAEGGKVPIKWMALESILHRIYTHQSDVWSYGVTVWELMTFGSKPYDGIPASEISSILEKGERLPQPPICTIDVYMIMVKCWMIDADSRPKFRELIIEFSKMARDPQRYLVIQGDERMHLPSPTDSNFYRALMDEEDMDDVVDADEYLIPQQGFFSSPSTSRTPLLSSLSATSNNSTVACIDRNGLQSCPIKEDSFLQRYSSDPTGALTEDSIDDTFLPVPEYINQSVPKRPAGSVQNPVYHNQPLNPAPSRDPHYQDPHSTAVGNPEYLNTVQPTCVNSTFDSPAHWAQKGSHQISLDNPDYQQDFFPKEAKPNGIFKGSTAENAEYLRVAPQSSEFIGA
T1 sequence (P00533 with tags, fused parts or gaps DUP768-770): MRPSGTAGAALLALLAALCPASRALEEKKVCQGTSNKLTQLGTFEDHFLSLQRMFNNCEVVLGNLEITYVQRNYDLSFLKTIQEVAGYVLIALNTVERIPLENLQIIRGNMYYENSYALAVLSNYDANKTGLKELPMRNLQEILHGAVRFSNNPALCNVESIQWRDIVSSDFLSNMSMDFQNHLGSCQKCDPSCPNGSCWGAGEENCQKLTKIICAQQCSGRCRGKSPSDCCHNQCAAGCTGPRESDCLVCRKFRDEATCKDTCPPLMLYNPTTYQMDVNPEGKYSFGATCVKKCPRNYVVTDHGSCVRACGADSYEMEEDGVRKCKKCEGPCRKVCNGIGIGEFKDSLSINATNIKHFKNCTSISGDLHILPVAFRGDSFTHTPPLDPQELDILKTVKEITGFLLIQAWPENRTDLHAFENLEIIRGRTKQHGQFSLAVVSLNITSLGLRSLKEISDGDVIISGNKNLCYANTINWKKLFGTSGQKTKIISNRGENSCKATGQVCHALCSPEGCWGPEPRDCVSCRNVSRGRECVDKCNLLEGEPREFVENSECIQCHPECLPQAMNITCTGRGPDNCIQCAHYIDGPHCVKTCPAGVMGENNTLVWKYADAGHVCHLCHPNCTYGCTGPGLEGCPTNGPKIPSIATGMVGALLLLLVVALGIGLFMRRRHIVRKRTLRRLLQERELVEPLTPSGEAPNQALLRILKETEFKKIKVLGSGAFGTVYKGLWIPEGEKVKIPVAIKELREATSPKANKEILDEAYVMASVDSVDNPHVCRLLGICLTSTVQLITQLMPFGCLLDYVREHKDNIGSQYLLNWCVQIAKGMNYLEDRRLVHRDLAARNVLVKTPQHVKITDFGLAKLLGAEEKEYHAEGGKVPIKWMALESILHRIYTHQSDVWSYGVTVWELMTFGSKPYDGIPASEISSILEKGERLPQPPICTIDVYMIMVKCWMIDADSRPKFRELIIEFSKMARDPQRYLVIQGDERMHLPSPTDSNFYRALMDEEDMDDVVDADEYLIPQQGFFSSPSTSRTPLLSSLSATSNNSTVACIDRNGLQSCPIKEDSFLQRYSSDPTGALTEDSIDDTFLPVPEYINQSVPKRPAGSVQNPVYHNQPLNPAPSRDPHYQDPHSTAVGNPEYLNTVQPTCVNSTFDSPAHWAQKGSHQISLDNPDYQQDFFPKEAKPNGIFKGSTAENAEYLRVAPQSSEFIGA

Structure (SMILES): CC#CC(=O)Nc1ccc2ncnc(Nc3ccc(Oc4ccn5ncnc5c4)c(C)c3)c2c1 [Compound 1, N-[4-[(3-methyl-4-[[1,2,4]triazolo[1,5-a]pyridin-7-yloxy]phenyl)amino]quinazolin-6-yl]but-2-ynamide]
- GI50 [1]: 775 nM
- GI50 [2]: 861 nM
